By IC50 is commonly meant the concentration that inhibits the measured activity by half. Lower therefore signals greater potency in that assay. Usually solubility stands for the dissolved amount per volume that the medium holds. One may read the AUC(0-inf) as total exposure, with the tail of the curve extrapolated. Read a low AUC(0-inf) as low exposure. As a reminder, the clearance is the rate of elimination divided by the concentration.

In data set [1] the target is Human MMP-9 (Homo sapiens, UniProt P14780). The data set can be described thus: MMP enzymatic activity, modified fluorescence assay (DNP-substrate). It is filed as biochemical. On the procedure: (§1) IC50 values are measured by an in vitro assay for MMP enzymatic activity. Such an assay is described by Stack, M. S., and Gray, R. D., J. Biol. Chem. 264 (1989) 4277-4281. This assay is based on the determination of MMP enzymatic activity on a dinitrophenol substrate and fluorescence measurement of the substrate after cleaving by MMPs.
Human MMP-9, sequence (P14780 107-707 limits assumed): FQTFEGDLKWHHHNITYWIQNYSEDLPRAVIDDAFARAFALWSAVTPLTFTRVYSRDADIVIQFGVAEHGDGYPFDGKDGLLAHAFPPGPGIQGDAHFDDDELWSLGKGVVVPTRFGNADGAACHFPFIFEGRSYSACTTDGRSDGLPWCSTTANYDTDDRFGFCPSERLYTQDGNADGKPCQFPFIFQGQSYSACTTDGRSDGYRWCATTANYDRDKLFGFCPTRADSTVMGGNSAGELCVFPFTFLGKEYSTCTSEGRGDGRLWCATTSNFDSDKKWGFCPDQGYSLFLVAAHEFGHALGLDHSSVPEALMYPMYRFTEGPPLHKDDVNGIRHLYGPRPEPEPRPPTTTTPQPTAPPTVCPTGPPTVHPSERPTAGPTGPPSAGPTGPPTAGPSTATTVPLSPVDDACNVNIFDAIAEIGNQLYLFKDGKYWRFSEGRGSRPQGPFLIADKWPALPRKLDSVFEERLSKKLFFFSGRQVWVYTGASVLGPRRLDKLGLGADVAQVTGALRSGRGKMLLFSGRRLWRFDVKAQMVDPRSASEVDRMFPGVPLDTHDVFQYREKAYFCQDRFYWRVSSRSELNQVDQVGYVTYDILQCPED
(§2) Inhibitors were tested in a modified fluorescence-assay as described by Stack, M. S., and Gray, R. D., J. Biol. Chem. 264 (1989) 4277-4281. Human MMP-1, MMP-2, MMP-3, MMP-9 and MMP-14 are commercially available (e.g. Calbiochem). The pro-enzymes were activated with 1 mM APMA (incubation for 30 min at 37° C.) immediately before testing. Activated enzyme is diluted to 100 ng/ml in incubation buffer (50 mM Tris, 100 mM NaCl, 10 mM CaCl2, pH 7.6). The compounds were dissolved in 100% DMSO. […] DNP-substrate (Bachem M1855, 255 μM) was dissolved in incubation buffer.
(§3) The test tube contains 970 μl incubation buffer, 10 μl inhibitor solution and 10 μl enzyme solution. The reaction was started by adding the 10 μl substrate solution.
(§4) Kinetics of activity were determined using excitation at 280 nm and emission at 346 nm measured on a FluoroMax™ (Spex Industries Inc., Edison, N.J., USA) over 120 sec. DMSO has been used as control instead of inhibitor solution.
(§5) IC50's are defined as the concentration of inhibitor that gives a signal that is 50% of the positive enzyme control.

Data set [2] deals with Human MMP-14 (Homo sapiens, UniProt P50281). Described as above. It is filed as biochemical. On the procedure: as §1, §2, §3, §4, §5
Data set [3] in a line: Phase solubility study of Compound I with HP-β-CD and L-lysine. It is filed as physicochemical. The following applies: for solubility at 7 days: 25 °C, thermodynamic from solid. On the procedure:
Solubility studies were performed as described by Higuchi, T., and Connors, K. A., Advances in Analytical Chemistry and Instrumentation 4 (1965) 117-212. Excess amounts of Compound I were added to increasing concentrations of HP-β-CD (0-200 mM) in 5 ml dissolution media, either purified water or L-lysine solutions (50 mM or 500 mM). The glass containers were sealed and the suspensions were shaken in a water-bath at 25° C. until complexation equilibrium was reached (7 days). An aliquot was filtered through a 0.45 μm PVDF membrane filter and assayed for Compound I content by a validated liquid chromatography (LC) method.

Data set [4] is described as follows: Pharmacokinetics after intravenous administration to sheep. Conditions: I.V. solution, 5 mg/kg. It is filed as in vivo. On the procedure:
The Compound I/HP-β-CD intravenous solution was obtained by dissolving CompoundI (10 mg/ml) in a solution containing HP-β-CD (200 mM), L-lysine (20 mM) and water for injection. The osmolality (about 325 mOsmol/kg) and the pH (about 8.2) values of this solution are compatible with an intravenous injection. The solution was sterilized by passing through a sterile 0.20 μm cellulose acetate filter under aseptic conditions.
Six healthy sheep (2 males and 4 females) ranging from 45 to 82 kg of body weight were used as experimental animals. During the test, the animals were fed and watered ad libitum.
The experimental study, which was realized following the scheme of Table 3, included a randomized two-way cross-over design for oral administration followed by an intravenous administration. A wash-out period of 3 weeks was allowed between each administration.
For the intravenous dosage form, all six sheep received 5 mg of Compound I/kg of body weight. The solution was administered through the left jugular vein and blood samples were taken from the right jugular vein before and 5, 10, 15, 20, 30, 45 min, 1, 1.5, 2, 3, 4, 5, 6, 8, 10, 12, 24, 28, 32, 48, 72, 96, 120, 144, 168 h after starting the intravenous administration.
All blood samples were centrifuged and the serum were stored at −80° C. until assayed.
A fully automated method was developed for the LC determination of this compound in serum. Sample clean-up was performed by on-line coupling of a pre-column packed with restricted access material (RAM), namely LiChrospher RP-8ADS (alkyl diol silica), to the analytical column by means of the column-switching technique. The ADS sorbents belong to the group of internal surface reversed-phase supports and have been applied successfully for the clean-up of biological samples prior to LC analysis (Yu, Z., and Westerlund, D., Chromatographia 44 (1997) 589-594; Hubert, Ph., et al., S. T. P. Pharma Pratiques 9 (1999) 160-180; Souverain, S., et al., Journal of Chromatography B 801 (2004) 141-156). The operating conditions are described in a previous paper (Chiap, P., et al., Journal of Chromatography B 817 (2005), 109-117). The method was fully validated according to a novel approach based on accuracy profiles taking into account the total measurement error (Hubert, P., et al., Analytica Chimica Acta 391 (1999) 135-148; Hubert, Ph., et al., S. T. P. Pharma Pratiques 13 (2003) 27-64; Hubert, Ph., et al., J Pharm Biomed. Anal. 36 (2004) 579-586.
For the bioanalytical study, the dosing range of the method had to be increased until 50 μg/ml due to high concentrations to be determined. A partial revalidation was performed and good results were obtained with respect to response function, trueness, precision, accuracy and linearity.
For the intravenous administration study, the pharmacokinetic parameters were determined for each animal using a linear two-compartment model with first-order distribution and elimination (Boroujerdi, M., Pharmacokinetics, Principles and Applications. McGrow-Hill Companies, USA, 2002). The areas under the curve values (AUCs0-168) were calculated by linear trapezoidal rule during the sampling period. The AUC extrapolated until infinite values (AUCs0-∞), the total body clearance values (Clt), the biologic half-life (T1/2β) and the overall volume of distribution (Vdt) were calculated using conventional equations associated with compartmental analysis (Boroujerdi, M., Pharmacokinetics, Principles and Applications, McGrow-Hill Companies, USA, 2002).

Values after ≈ are worked out from the molar mass of the structure shown. Values joined by “and” are separate entries in the source; they are usually repeats but may differ in a detail not shown here. Identical values can stand only once. Like-named read-outs stand apart in the source and are kept apart here.

Regarding `O=C1NC(=O)C(c2ccc(-c3ccccc3)cc2)(N2CCN(c3ccc([N+](=O)[O-])cc3)CC2)C(=O)N1` [Compound I, 5-Biphenyl-4-yl-5-[4-(4-nitro-phenyl)-piperazin-1-yl]pyrimidine-2,4,6-trione], the IC50 in data set [1] came out at 260 nM; in data set [2], 1 nM. The solubility at 7 days in data set [3] (50 mM L-lysine solution with 200 mM HP-β-CD, aqueous with cosolvent or surfactant or cyclodextrin, L-lysine 50 mM, 25° C., read-out: Solubility with HP-β-CD (200 mM)) is 17100 µg/mL (≈ 35.2 mM); in data set [3] (50 mM L-lysine solution, no cyclodextrin, aqueous buffer, L-lysine 50 mM, 25° C., read-out: Solubility without CD), 50 µg/mL (≈ 0.103 mM); in data set [3] (200 mM HP-β-CD in purified water, aqueous with cosolvent or surfactant or cyclodextrin, purified water, 25° C., read-out: Solubility with HP-β-CD (200 mM)), 5530 µg/mL (≈ 11.4 mM); in data set [3] (200 mM HP-β-CD in purified water, no L-lysine, aqueous with cosolvent or surfactant or cyclodextrin, solubility in a 200 mM HP-β-CD solution, absence of L-lysine) it was ~5500 µg/mL and ~11000 µM; in data set [3] (500 mM L-lysine solution with 200 mM HP-β-CD, aqueous with cosolvent or surfactant or cyclodextrin, 500 mM L-lysine and 200 mM HP-β-CD, read-out: solubility) it was 38100 µg/mL (≈ 78.6 mM); in data set [3] (500 mM L-lysine solution with 200 mM HP-β-CD, aqueous with cosolvent or surfactant or cyclodextrin, L-lysine 500 mM, 25° C., read-out: Solubility with HP-β-CD (200 mM)), 38100 µg/mL (≈ 78.6 mM). The solubility at 7 days in data set [3] (500 mM L-lysine solution, no cyclodextrin, aqueous buffer, L-lysine 500 mM, 25° C., read-out: Solubility without CD) turned out to be 90 µg/mL (≈ 0.185 mM); in data set [3] (500 mM L-lysine solution, no cyclodextrin, aqueous buffer, L-lysine (500 mM) separately, no CD, read-out: solubility) it was 90 µg/mL (≈ 0.185 mM); in data set [3] (purified water, no cyclodextrin, water, purified water, 25° C., read-out: Solubility without CD), 0.56 µg/mL (≈ 0.00115 mM). For the same molecule, the “increase of aqueous solubility” value in data set [3] (200 mM HP-β-CD, no L-lysine, vs purified water) is reported as “approximately 10,000 fold”; in data set [3] (500 mM of L-lysine and 200 mM of HP-β-CD) it was 70,000 fold. The distribution phase result in data set [4] (sheep) is reported as “about 30 minutes”. The molecule further displayed an AUC(0-inf) in data set [4] (both sexes, serum, iv, sheep n = 6, mean ± S.D.) of 859 ± 212 µg·h/mL. The AUC(0-t) in data set [4] (both sexes, serum, iv, sheep n = 6, mean ± S.D., read-out: AUC0-168 h) was 858 ± 212 µg·h/mL. Moreover, in data set [4] (both sexes, sheep, serum, iv, sheep n = 6, mean ± S.D., read-out: Clt (total body clearance) (converted)), the clearance was around 5.97 mL/min. Besides, the half-life in data set [4] (both sexes, sheep, serum, iv, sheep n = 6, mean ± S.D., read-out: T1/2β (biologic half-life) (converted)) is around 15.5 h. For the same molecule, in data set [4] (both sexes, sheep, serum, iv, sheep n = 6, mean ± S.D., read-out: Vdt (overall volume of distribution)), the Vd was around 8 L.

These data come from patent publication US20070225253A1, “Use of a trioxopyrimidine for the treatment and prevention of bronchial inflammatory diseases” (priority 2004, published 2007).
